Results: patent publication US4000297A, “N-p-chlorobenzoyl tryptophane, salts and compositions thereof” (priority 1971, dated 1976)
Counter-ions that a name gives are not always drawn. Like-named read-outs stand apart in the source and are kept apart here.

How the values were obtained:
[1] = Tolerability in humans, prolonged oral administration; assay type: in vivo; conditions: several weeks, 500 to 1600 mg
[2] = Solubility; assay type: physicochemical; conditions: for Solubility in water: in words
[3] = tested on: transit through the stomach and intestine; assay: Anti-spastic activity, vegetable carbon (charcoal) test, rate of transit through the stomach and intestine; assay type: in vivo, mice; conditions: for Antispastic activity, in words: in vivo; for ED50: Mus musculus, 2 h; for Ratio 3/2: anti-secretive ED50 / anti-spastic ED50 (Table 3)
Description: Particularly marked is the anti-spastic activity which the present compounds exercise on the entire digestive system. Measured in the mouse, using the vegetable carbon test (rate of transit through the stomach and intestine), this activity is in some cases comparatively greater than the anti-secretive activity (Table 3).
(*)The antispastic activity is measured in mice of an average weight of […]
± 3 g by administering a suspension of charcoal in gum arabic and
checking after two hours whether the charcoal has reached the initial
portion of the colon. In non-treated subjects the charcoal reaches this
transit of the charcoal. Evaluation of the results is effected as
ED50 in mg/kg body weight of the animal, i.e., the dose at which the […]

[4] = Stability in conventional preservation tests and light sensitiveness; assay type: physicochemical; conditions: oral forms (capsules, tablets)
[5] = tested on: gastric secretion; assay: Comparison of antisecretive activity, rats with tied pylorus, oral aqueous suspension; assay type: in vivo; conditions: oral; for ED50: Rattus norvegicus, po, read-out: Antisecretive activity (dose which reduces the gastric secretion by 50%)
Description: (*)The antisecretive activity is defined as the dose in mg/kg of body
weight of the animal, which reduces the gastric secretion by 50%. The
evaluation is effected by considering the decrease in quantity of secrete
gastric juice as compared with controls. Rats of an average weight of 200
± 20 grams are employed of which the lower part of the stomach at the
level of the pylorus is tied to collect the gastric juice during the
indicated periods. The preparations are administered orally in the form o

[6] = tested on: gastric lesions from Indomethacin; assay: Protective activity against gastric lesions due to Indomethacin; assay type: in vivo, rats; conditions: oral; for ED50: Rattus norvegicus, po, 4 h, read-out: Protective activity ED50
Description: The activity is defined as the dose in mg/kg of body weight to the animal, which prevents in 50% of the treated subjects arising of lesions due to Indomenthacin.
The protective preparations are administered orally in aqueous suspension.

[7] = tested on: gastric secretion; assay: Anti-secretive activity in the rat by gastric stimulus, oral; assay type: in vivo; conditions: oral (Table 1), read-out: Activity B: anti-secretive activity ED50
Description: *3 Anti-secretive activity in the rat by gastric stimulus, ED50 mg/k

[8] = rat, in vivo, po
[9] = tested on: gastric secretion; assay: Anti-secretive activity in the rat with lig. pylorus, iv; assay type: in vivo; conditions: for Therapeutic coefficient iv. 2/3: DL50 iv / ED50 iv (Table 2)
[10] = Acute toxicity (DL50) in the mouse; assay type: in vivo; conditions: in vivo
Text: *1 DL50 in the mouse mg/kg iv.
Examples of differences between toxicity (DL50 in
the mouse) by intravenous administration and oral
administration in mg/kg. Variation in therapeutic

[11] = tested on: gastric secretion; assay: Anti-secretive activity, oral (comparison of iv and oral therapeutic coefficient); assay type: in vivo; conditions: oral (Table 2)
Text: | *6 Anti-secretive activity ED50 oral | *7 Therapeutic coefficient oral

[12] = dog, in vivo, po
[13] = Rattus norvegicus, iv, i.v. (Table 2), read-out: Anti-secretive activity ED50 i.v.
[14] = rat with lig. pylorus, iv (Table 1), read-out: Activity A: anti-secretive activity ED50
[15] = mouse, vegetable carbon test (Table 3), read-out: Anti-spastic activity ED50
[16] = po, charcoal after two hours, orally (later Table 3), read-out: Antispastic activity ED50
[17] = iv (Table 1), read-out: DL50 value
[18] = oral (Table 2), read-out: DL50 oral
[19] = Rattus norvegicus, iv, read-out: Activity A: anti-secretive activity ED50
[20] = Rattus norvegicus, iv, read-out: Anti-secretive activity ED50 i.v.
[21] = iv, iv (Table 1), read-out: DL50 value
[22] = Rattus norvegicus, iv, read-out: Anti-secretive activity ED50

SMILES | ED50 [7] [mg/kg] | Therapeutic coefficient iv. 2/3 ([9]; iv) | ED50 [3, 15] [mg/kg] | ED50 [3, 16] [mg/kg] | Ratio 3/2 [3] | ED50 ([5]; 2.5 h, 2.5 hrs) [mg/kg] | ED50 ([5]; 5 h, 5 hrs) [mg/kg] | ED50 ([5]; 10 h, 10 hrs) [mg/kg] | ED50 [11] [mg/kg] | Therapeutic coefficient oral [11] | ED50 ([6]; Indomethacin 16 mg/kg orally) [mg/kg] | ED50 [9, 19] [mg/kg] | ED50 [9, 20] [mg/kg] | ED50 ([5]; 15 h, 15 hrs) [mg/kg] | LD50 [10, 21] [mg/kg] | also measured
O=C(N[C@@H](Cc1c[nH]c2ccccc12)C(=O)O)c1ccc(Cl)cc1 [CR 501 calcium salt, N-p-chloro-benzoyl-L-tryptophane calcium salt] |  |  |  |  |  |  |  |  |  |  |  |  |  |  |  | Side effects in humans [1]: does not lead to any specific side effect; Solubility in acetone ([2]; acetone): soluble; Solubility in ethanol ([2]; ethanol, listed as Example 53, calcium salt): soluble; Solubility in methanol ([2]; methanol, listed as Example 53, calcium salt): soluble; Solubility in water ([2]; listed as Example 53, calcium salt): Very slightly soluble; Antispastic activity ED50 ([3]; charcoal after two hours, orally (later Table 3), 120 min, calcium salt, 120 min): 210 mg/kg; Antispastic activity, in words ([3]; mouse, calcium salt): more particularly effective as antispastic; Light sensitiveness [4]: absence of light sensitiveness; Stability on conventional preservation tests [4]: thorough stability; Antisecretive activity (dose which reduces the gastric secretion by 50%) ([5]; 2.5 hrs, calcium salt, 150 min): 210 mg/kg; Antisecretive activity (dose which reduces the gastric secretion by 50%) ([5]; 5 hrs, calcium salt, 300 min): 165 mg/kg; Antisecretive activity (dose which reduces the gastric secretion by 50%) ([5]; 10 hrs, calcium salt, 600 min): 142 mg/kg; Antisecretive activity (dose which reduces the gastric secretion by 50%) ([5]; 15 hrs, calcium salt, 900 min): 170 mg/kg; Protective activity ED50 ([6]; Indomethacin 16 mg/kg orally, 240 min, calcium salt): 145 mg/kg/os
O=C(N[C@@H](Cc1c[nH]c2ccccc12)C(=O)O)c1ccc(Cl)cc1 [Ex.18 (CR501), N-p-chloro-benzoyl-L-tryptophane] | 110 | 1.9 | 82 | 248 | 1.7 | 171 | 143 | 150 | 150 | 7.3 | 234 |  |  |  |  | Acute and chronical toxicity [8]: without exhibiting any appreciable symptom of toxicity; ED50 ([9]; Rattus norvegicus, iv, compared with anti-spastic activity (Table 3), read-out: Anti-secretive activity ED50): 139 mg/kg; ED50 [9, 13]: 139 mg/kg; ED50 [9, 14]: 139 mg/kg; Solubility in water ([2]; listed as CR 501): water-insoluble; Solubility in water ([2]; listed as CR501): insoluble in water; Antispastic activity, in words ([3]; mouse): active as antispastic; LD50 [10, 17]: 263 mg/kg; LD50 [10, 18]: 1100 mg/kg; Start of antisecretive activity from administration [5]: < 5 h; Antisecretive activity (dose which reduces the gastric secretion by 50%) ([5]; 15 hrs, 900 min): 361 mg/kg; Extent in time of antisecretive activity ([5]; with a gradual sinking): up to 15 hours; Protective activity against Indomethacin lesions, in words [6]: efficient activity in preventing gastric lesions; Acute and chronical toxicity [12]: without exhibiting any appreciable symptom of toxicity
Cc1ccc(C(=O)N[C@@H](Cc2c[nH]c3ccccc23)C(=O)O)cc1 [Ex.21 (CR510), N-p-toluyl-L-tryptophane] | 318 | 3.8 |  | 487 |  | 490 | 407 | 346 | 346 | 5.8 | 382 | 184 | 184 | 583 |  | LD50 [10, 17]: 700 mg/kg; LD50 [10, 18]: 2000 mg/kg
COc1ccc(COC(=O)N[C@@H](Cc2c[nH]c3ccccc23)C(=O)O)cc1 [Ex.32 (CR462), N-p-methoxy-carbobenzoxy-L-tryptophane] | 114 | 3.2 |  |  |  |  |  |  | 142 |  |  |  |  |  | 430 | ED50 [9, 13]: 133 mg/kg; ED50 [9, 14]: 146 mg/kg
O=C(N[C@@H](Cc1c[nH]c2ccccc12)C(=O)O)OCc1ccc(Cl)cc1 [Ex. 1 (CR449), N-p-chloro-carbobenzoxy-L-tryptophane] | 127 | 1.8 | 72 |  | 1.8 | 121 | 98 | 115 | 154 | 9.1 | 182 | 131 | 131 | 155 | 240 | ED50 [9, 22]: 131 mg/kg; LD50 ([10]; po, oral (Table 2), read-out: DL50 oral): 1410 mg/kg
O=C(N[C@@H](Cc1c[nH]c2ccccc12)C(=O)O)OCc1ccc(Br)cc1 [Ex. 6 (CR451), N-p-bromo-carbobenzoxy-L-tryptophane] | 77 | 1.9 |  | 275 |  | 180 | 148 |  | 133 |  | 335 | 92.1 | 99 | 405 | 125 | LD50 ([10]; iv, iv (Table 2), read-out: DL50 iv): 185 mg/kg; Antisecretive activity (dose which reduces the gastric secretion by 50%) ([5]; 10 hrs, listed as CR 451 (Ex. 6), 600 min): 133 mg/kg
Cc1ccc(COC(=O)N[C@@H](Cc2c[nH]c3ccccc23)C(=O)O)cc1 [Ex. 9 (CR454), N-p-methyl-carbobenzoxy-L-tryptophane] | 125 | 1.9 | 120 |  | 1.6 |  |  |  | 268 |  |  | 187 | 166 |  | 320 | ED50 [9, 22]: 187 mg/kg
